# Assay results: US8957087B2, “Heterocyclic substituted acardite derivate and application thereof” (Jiangsu Provincial Institute of Materia Medica Co., Ltd., priority 2009, dated 2015)
# Legend:
# [1] = tested on: human high-metastic lung cancer cell 95D; assay: Inhibition of human high-metastic lung cancer cell 95D migration (Boyden Chamber Transwell); type: cell-based; settings: Final concentration 1 x 1.0*10^(−5) mol/L
# Experimental: 5 Inhibition effects of compounds on human high-metastic lung cancer cell 95D migration
# [Test materials] Boyden Chamber Transwell chamber (with pore size of 8 μm), human high-metastic lung cancer cell 95D cell strain, 1640 medium containing 10% FBS, 1640 medium containing no serum
# (§1) [Tested compound] Compounds 1-38
# (§2) [Positive control medicine] Sorafenib, compounds A′, B′, C′ with no substituent or only amino formyl in A ring
# (§3) The inhibition rate is calculated as follows: […]
# [2] = tested on: Human colon cancer HT-29 transplantable tumor; assay: Human colon cancer HT-29 transplantable tumor in nude mice; settings: HT-29 in nude mice, 60 mg/kg ig 9 times
# [3] = tested on: human liver cancer cell bel-7402 transplantation tumor; type: in vivo; settings: BALB/cA nude mice; 60 mg/kg, 6 times every week for 3 weeks; Sorafenib oral 60 mg/kg
# Experimental: 10. Tumor inhibition rate of tested compounds on human liver cancer cell bel-7402 transplantation tumor model in nude mice
# (§4) [Test animals] female BALB/cA nude mice, 35-40 days old, with weight of 18-22g. There were 12 mice in the negative conrol group and 6 mice in the treatment group.
# (§5) The dosage of the compound was 60 mg/kg, 6 times every week for 3 weeks. […] Equal amount of normal saline was administrated in the negative control group. Observe for one week after administration.
# lung cancer cell A549 = assay: Effects on the adhesive ability of lung cancer cell A549; type: cell-based, human; settings: Final concentration 1 x 1.0*10^(−5) mol/L
# Experimental: 6. Effects of tested compounds on the adhesive ability of lung cancer cell A549
# [Test materials] gelatin, CCK8, poly-lysine (PLL), A549 cell stains, 1640 medium containing 10% FBS
# (§6) [Tested compound] Compounds 1-38 to be tested
# as §2, §3
# Dosing dosing cells without cell group (gelatin adhesive OD/PLL adhesion OD)−Dosing cell group (gelatin adhesive OD/PLL adhesion OD value)
# Dosing dosing cells without cell group (gelatin adhesive OD/PLL adhesion OD value)
# [4] = tested on: human umbilical vein endothelial cell HUVEC; assay: Lumen formation ability of HUVEC (Matrigel method); type: cell-based; settings: Final concentration 1 x 1.0*10^(−5) mol/L
# Source text: 8. Inhibition effects of compounds on the lumen formation ability of human umbilical vein endothelial cell HUVEC
# [Experimental principles] The human umbilical vein endothelial cells have ability of spontaneously forming blood lumen on Matrigel, which can be used to simulate the process of angiogenesis in vivo. We used Matrigel method to investigate the effects of the compound on the lumen formation ability of human umbilical vein endothelial cell HUVEC.
# [Test materials] HUVEC (taking generation 3 to 5 cells for experiments after obtained from primary separation and cultured at 37 under the conditions of 5% CO2), Matrigel, cell culture medium M199.
# as §1, §2, §3
# [5] = tested on: human umbilical vein endothelial cell HUVEC; assay: Growth of human umbilical vein endothelial cell HUVEC by CCK8 method; type: cell-based; settings: Final concentration 1 x 1.0*10^(−5) mol/L
# Source text: 7. Effects of tested compounds on the growth of human umbilical vein endothelial cell HUVEC cell by CCK8 method
# [Test materials] CCK8, human umbilical vein endothelial cell HUVEC cell, 1640 medium containing 10% FBS
# as §6, §2
# (§7) Relative OD value of conrol well=OD value of control well−OD value of blank well
# (§8) Relative OD value of drug well=OD value of drug well−OD value of blank well
# [6] = tested on: human lung cancer cell strain A549; assay: MTT assay, inhibition of growth of human lung cancer cell strain A549; type: cell-based; settings: Final concentration 1 x 1.0*10^(−5) mol/L
# Experimental: 4. Using 3-(4,5-dimethylthiazol-2-yl)-2,5-diphenyl tetrazolium bromide assay (MTT) to detect the inhibition effects on the growth of human lung cancer cell strain A549
# [Test materials] MTT working solution, F12 medium containing 10% FBS, continuous injectors
# as §1, §2
# The inhibition rate is calculated as follows:
# as §7, §8
# [7] = tested on: human lung cancer A549 transplantation tumor; type: in vivo; settings: BALB/cA nude mice; 60 mg/kg, 6 times every week for 3 weeks; Sorafenib oral 60 mg/kg
# Experimental: 9. Tumor inhibition rate of tested compounds on human lung cancer A549 cell transplantation model in nude mice
# as §4, §5
# Raf-1(truncated) = assay: Raf-1 inhibitor screening by chemoluminescence method; type: biochemical; settings: Final concentration 1 x 1.0*10^−5 mol/ml
# Source text: 1. Inhibitory activity of the compound of the present invention on raf kinase
# Raf-1 inhibitor screening by chemoluminescence method
# Westernblot electrophoresis apparatus Rotaryshaker
# Raf-1(truncated), Magnesium/ATP Cocktail, MEK1 unactive
# [8] = tested on: renal carcinoma cell line GCR-1 transplanted tumor; type: in vivo, BALB/cA nude mice; settings: BALB/cA nude mice; 60 mg/kg, 6 times every week for 3 weeks; Sorafenib oral 60 mg/kg
# Experimental: 11. Tumor inhibition rate of medicines on renal carcinoma cell line GCR-1 transplanted tumor model in nude mice
# as §4
# [Test method] […] The dosage of the medicine was 60 mg/kg, 6 times every week for 3 weeks. […] Equal amount of normal saline was administrated in the negative control group. Observe for one week after administration.
# mice S180 sarcoma = assay: Experimental therapeutic action on S180 sarcoma mice; settings: mice S180 sarcoma, 60 mg/kg orally for 9 days
# Experimental: Experimental therapeutic action of the compound in the present invention on S180 sarcoma mice
# 18-25 g female ICR mice and well grown 7-11 day old mice sarcoma S180 tumor seeds were selected, and the seeds were inoculated into the subcutaneous at the right axillary. After inoculated 24 hours, these mice were randomly divided into cages and orally administrated 60 mg/kg for 9 days. On 10 day, the animals were killed and weighed, and the tumor weights were weighed to calculate average tumor weight in each group, followed by calculating the tumor inhibition rate according to the following formula and T test.
SMILES,"Inhibition rate, 95D cell strain migration [1]",Relative tumor reproduction rate T/C (%) [2],Relative tumor reproduction rate T/C (%) on human liver cancer cell bel-7402 transplantation tumor model in nude mice [3],"Inhibition rate, adhesion ability of human lung cancer cell A549 (lung cancer cell A549)","Inhibition rate, lumen formation ability of HUVEC [4]","Inhibition rate, growth of HUVEC cell [5]","Inhibition rate, growth of human lung cancer cell A549 [6]",Relative tumor reproduction rate T/C (%) on human lung cancer A549 transplantation tumor in nude mice [7],Inhibition rate % on raf kinase (Raf-1(truncated)),Relative tumor reproduction rate T/C (%) on human renal carcinoma GCR-1 cell transplanted tumor model in nude mice [8],Tumor growth inhibition rate (%) (mice S180 sarcoma)
"CNC(=O)c1ncc(Oc2ccc(NC(=O)Nc3ccc(Br)c(C(F)(F)F)c3)cc2)c(OC)n1 [Compound 9, N-(4-bromo-3-(trifluoromethyl)phenyl)-N′-(4-(2-(N-methylaminoformoxyl)-5-(4-methoxypyrimidinyl)oxy)phenyl)urea]",91.42%,35.2%,36.8%,85.32%,91.45%,11.54%,61.54%,38.7%,99.2%,28.3%,55.9%
"CNC(=O)c1ncc(Oc2ccc(NC(=O)Nc3ccc(F)c(C(F)(F)F)c3)cc2)c2ccc(N)cc12 [Compound 11, N-(4-fluoro-3-(trifluoromethyl)phenyl)-N′-(4-(2-(N-methylaminoformoxyl)-4-(7-amino-isoquinolyl)oxy)phenyl)urea]",78.66%,81.2%,23.7%,59.63%,79.63%,29.20%,69.20%,43.7%,11.2%,32.1%,54.2%
"CNC(=O)c1ncc(Oc2ccc(NC(=O)Nc3ccc(Br)c(C(F)(F)F)c3)cc2)c2ccc(N)cc12 [Compound 12, N-(4-bromo-3-(trifluoromethyl)phenyl)-N′-(4-(2-(N-methylaminoformoxyl)-4-(7-amino-isoquinolyl)oxy)phenyl)urea]",66.79%,80.5%,31.6%,62.30%,52.37%,12.31%,42.31%,36.3%,12.1%,20.5%,45.7%
"CNC(=O)c1cc(Oc2ccc(NC(=O)Nc3ccc(Cl)c(C(F)(F)F)c3)cc2)c(C)[nH]1 [Compound 13, N-(4-chloro-3-(trifluoromethyl)phenyl)-N′-(4-(2-(N-methylaminoformoxyl)-4-(5-methyl-pyrryl)oxy)phenyl)urea]",65.45%,81.2%,29.8%,63.39%,53.36%,24.23%,64.23%,38.4%,55.0%,28.3%,21.2%
"CNC(=O)c1cc(Oc2ccc(NC(=O)Nc3ccc(F)c(C(F)(F)F)c3)cc2)c(C)[nH]1 [Compound 14, N-(4-fluoro-3-(trifluoromethyl)phenyl)-N′-(4-(2-(N-methylaminoformoxyl)-4-(5-methyl-pyrryl)oxy)phenyl)urea]",57.57%,40.1%,36.1%,67.51%,67.53%,17.25%,67.25%,32.2%,41.3%,31.1%,18.2%
"CNC(=O)c1cc(Oc2ccc(NC(=O)Nc3ccc(Br)c(C(F)(F)F)c3)cc2)c(C)[nH]1 [Compound 15, N-(4-bromo-3-(trifluoromethyl)phenyl)-N′-(4-(2-(N-methylaminoformoxyl)-4-(5-methyl-pyrryl)oxy)phenyl)urea]",63.68%,85.2%,33.6%,68.63%,68.64%,38.17%,72.17%,38.7%,35.5%,22.5%,56.7%
COc1ccc2nccc(Oc3ccc(NC(=O)Nc4ccc(Cl)c(C(F)(F)F)c4)cc3)c2c1 [Compound 16],89.31%,55.2%,14.9%,90.77%,80.79%,10.71%,89.71%,9.9%,62.1%,9.9%,33.6%
COc1ccc2nccc(Oc3ccc(NC(=O)Nc4ccc(F)c(C(F)(F)F)c4)cc3)c2c1 [Compound 17],90.52%,54.7%,12.5%,97.50%,67.50%,13.52%,88.52%,7.3%,58.2%,11.1%,44.2%
COc1ccc2nccc(Oc3ccc(NC(=O)Nc4ccc(Br)c(C(F)(F)F)c4)cc3)c2c1 [Compound 18],93.73%,40.2%,12.7%,93.72%,63.71%,5.71%,90.71%,12.5%,34.4%,12.3%,35.7%
